Source: patent US20240374610A1, “METHOD AND PHARMACEUTICAL COMPOSITION FOR TREATING OR ALLEVIATING GLIOMAS IN A SUBJECT” (Zhejiang University, priority 2023, published 2024)

What was measured:
[1] = test system: CKO model-derived glioma cell lines 1483 and 1877; test: Proliferation rate of CKO model-derived glioma cell lines (EdU incorporation assay); type: cell-based, mouse; conditions: for proliferation of tumor OPCs: 200 μM glutamate, 200 μM GABA or 15 mM KCl vs control, cell lines 1483 and 1877
Excerpt: Cell lines were authenticated by tdTomato marker when histology analyzing. All cell lines tested negative for mycoplasma contamination.

[2] = test system: peripheral immune cells; test: Immune cells in peripheral blood under clozapine (FACS); type: in vivo, mouse; conditions: clozapine by oral or i.p. administration, three weeks
Protocol: Blood was collected by intracardial puncture from anaesthetized mice into heparinized 1 ml syringes. Heparin was used in a range of 30 units/ml. Red blood cells were lysed in ACK lysing buffer (Gibco, A10492) at room temperature for 5 min. Cell suspensions were spun down at 300 g for 5 min. The cell pellet was then washed with Hank's balanced salt solution (HBSS) and spun for 5 min at 300 g. The cells in the pellet (1-2×10^5 cells) were used in fluorescence assays. Antibodies used for flow cytometry were directed against the following mouse antigens: Pacific Blue anti-mouse CD45(30-F11), PE anti-mouse Ly-6G(1A8), PerCP/Cyanine5.5 anti-mouse CD11c, FITC anti-mouse CD19(1D3), APC anti-mouse CD3(17A2), APC/Cyanine7 anti-mouse/human CD11b(M1/70) from Biolegend. Dilution: 1: 200.

[3] = test system: blood-brain-barrier; test: Evans Blue dye assay of blood-brain barrier integrity; type: in vivo, mouse; conditions: WT mice, clozapine by drinking water or i.p.
Protocol: The protocol was adapted from Ludewig et al.^42 with some modifications. Mice were administrated with 200 μL Evans Blue (2%) by i.p injection. After six hours of EB injection, the mice were anaesthetized and then perfused with cold PBS. 100 mg tissue for each sample from multiple organs (as indicated in the FIG. 9g) was collected in 500 μL PBS and ground into tissue homogenate. 500 μL formamide was then add to the homogenate before being incubated in the 55° C. for 24 hours. After centrifugation, supernatants were collected for optical density detecting at 620 nm.

[4] = test system: local resident microglia; test: Granulocytes and macrophage/microglia in the brain under clozapine (CD15, Iba1, CD68 staining); type: in vivo, mouse
Protocol: All mouse frozen tissues were cryo-sectioned into 20 μm thickness. For routine staining, the slides were fixed in ice-cold 2% PFA for 15 minutes. After washed in 1×PBS (3 times, 10 minutes each), the slides were briefly rinsed with 1×PBT (0.3% Triton X-100 in 1×PBS) and then incubated with the blocking solution (5% normal donkey serum, 0.3% Triton X-100, 0.1% NaN3 in 1×PBS) for 20 minutes. The slides mounted with primary antibodies were then incubated in the wet box at 4° C. overnight. Next day, the slides were washed in 1×PBT (4 times, 10 minutes each) before incubated with secondary antibodies (diluted in 1×PBT) in foil-wrapped wet box at 4° C. overnight. The third day, the slides were washed in 1×PBT (4 times, 10 minutes each) and DAPI solution (25 ng/ml in 1×PBS, 20 minutes). After washing with 1×PBS for 5 minutes, the slides were mounted with the mounting solution (65% glycerol in 1×PBS) and covered with coverslips.

[5] = test system: glioma cells from the CKO model; test: RNA-Seq of glioma cells co-cultured with primary OB neurons and stimulated by IGF-1; type: cell-based, mouse; conditions: co-cultures stimulated by 20 ng/mL IGF-1
Protocol: OBs were dissected from P2-3 mouse pups and digested in 10 mL papain solution (1×EBSS (Sigma, E7510), 0.5 mM EDTA, 10 mM HEPES, 26 mM NaHCO3, 22.5 mM D(+)-glucose, 0.16 mg/mL L-cycteine, 20 units/mL papain (Worthington Biochem, LS003126), 250 μg/mL DNase I (Sigma, DN-25) in dd-water) for 30 min at 37° C. Papain solution was discarded and the tissue was triturated with 2 mL Diluted Trypsin Inhibitor Buffer (1×EBSS (Sigma, E7510), 10 mM HEPES, 26 mM NaHCO3, 1× ovomucoid (Worthington Biochem, LS003086), 250 μg/mL DNase I (Sigma, DN-25), 1 mg/mL BSA (equitech-bio, BAH62) in dd-water) by 1 mL pipette and was allowed to settle for 2 min. 1 mL upper cell suspension was carefully collected and additional 1 mL Diluted Trypsin Inhibitor Buffer was add to the tissue. The process was repeated until all Diluted Trypsin Inhibitor Buffer was consumed. […]
For sequencing of tumor cells from co-cultures, raw data was filtered by removing adapter with Cutadapt (Version 3.4) and quality control (not lower than 25). Clean reads were aligned to the reference genome Mus_musculus.GRCm39.dna.primary_assembly.fa (39.103) from Ensembl by STAR (Version 2.7.9a). Read counts were calculated by featureCounts (Version 2.0.1). The feature was selected as Exon, and only reads with mapping quality score greater than 25 were retained. […]

O=[N+]([O-])c1cc2nc(O)c(O)nc2cc1[N+](=O)[O-] [DQNX]
IGF1-promoted proliferation of tumor OPCs ([1]; 20 ng/mL IGF-1 plus 10 μM AMPA-receptor antagonist vs IGF-1 alone): did not affect

NCCCC(=O)O [GABA]
proliferation of tumor OPCs [1]: did not affect

N[C@@H](CCC(=O)O)C(=O)O [Glutamate]
proliferation of tumor OPCs [1]: did not affect

CN1CCN(C2=Nc3cc(Cl)ccc3Nc3ccccc32)CC1 [clozapine]
number of granulocytes in peripheral blood [2]: slightly but significantly reduced
number of macrophages in peripheral blood [2]: increased
integrity of the blood-brain-barrier [3]: did not affect the integrity
number or activation of local resident microglia ([4]; CKO model regardless of tumor stage, Iba1+ and CD68+ Iba1+): not affected
granulocytes (CD15) in the brain parenchyma ([4]; WT, Omp-hM3Dq, Omp-hM4Di and CKO tumor mice with clozapine treatment): barely any granulocytes could be found

[Cl-].[K+] [potassium chloride]
proliferation of tumor OPCs [1]: did not affect

insulin-like growth factor-1 [IGF-1]
expression of RTK downstream genes such as Egr3/4 and Fosl2 [5]: significant upregulation
expression of neurotransmitter receptor genes including AMPARs in tumor OPCs [5]: did not affect the expression
proliferation of tumor OPCs in vitro ([1]; 20 ng/mL IGF-1, glioma cell lines 1483 and 1877): significantly stimulated the proliferation
